Assay results as given in patent US8466157B2, “Proteasome inhibitors having chymotrypsin-like activity” (University of South Florida, priority 2009, dated 2013).
Where “and” joins values, the source holds several entries; their conditions need not be identical. Equal entries are not always repeated. Where two headings read alike, the source gives them in different places.

Target: T1, chymotrypsin-like activity of the purified rabbit 20S proteasome (Oryctolagus cuniculus, UniProt G1T4Q9)
T1 sequence (G1T4Q9 1-263): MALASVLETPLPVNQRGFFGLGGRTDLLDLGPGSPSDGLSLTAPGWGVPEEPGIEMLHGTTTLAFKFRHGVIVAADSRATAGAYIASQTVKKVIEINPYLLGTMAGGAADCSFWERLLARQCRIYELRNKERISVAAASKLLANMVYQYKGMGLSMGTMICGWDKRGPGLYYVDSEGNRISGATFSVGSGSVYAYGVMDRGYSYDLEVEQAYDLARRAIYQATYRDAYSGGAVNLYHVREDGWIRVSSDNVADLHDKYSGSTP
Test: 20S proteasome inhibition assay, fluorogenic substrate Suc-Leu-Leu-Val-Tyr-AMC;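 further: enzyme and 20 µM substrate incubated 1 h at 37 °C in Tris-HCl buffer pH 7.6, fluorogenic read-out, inhibition calculated against vehicle control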
Type: biochemical
Settings: for proteasome inhibitory activity, SAR statement in words: chymotrypsin-like activity, compared with lead or analogue

[1] = individual determinations (runs M-1096, M-1098, M-1099, AK or dated), read-out: Chymotrypsin-like Activity IC50
[2] = 30 μM, runs M-1096, M-1098, M-1099
[3] = mean of the individual determinations, read-out: Chymotrypsin-like Activity IC50 (μM), mean ± spread (n)

IC50 [1]	Compound	also measured
0.82 µM and 4.55 µM and 5.36 µM	CCOC(=O)CSc1cc(NS(=O)(=O)c2ccc([N+](=O)[O-])cc2)c2ccccc2c1O [YG1-148F5, Ethyl 2-(1-hydroxy-4-(4-nitrophenylsulfonamido)naphthalen-2-ylthio)acetate]	proteasome inhibitory activity, SAR statement in words: slightly enhanced the activity
> 10 µM	O=C(O)CSc1ccc(NS(=O)(=O)c2cccs2)c2ccccc12 [YG3-007, 2-(4-(thiophene-2-sulfonamido)naphthalen-1-ylthio)acetic acid]	–
8.2 µM and > 10 µM (2×)	CCOC(=O)CS(=O)(=O)c1cc(NS(=O)(=O)c2cccs2)c2ccccc2c1O [YG1-133, Ethyl 2-(1-hydroxy-4-(thiophene-2-sulfonamido)naphthalen-2-ylsulfonyl)acetate]	–
> 10 µM	N-(3-(ethylthio)-4-hydroxynaphthalen-1-yl)thiophene-2-sulfonamide [YG2-087-1]	–
> 10 µM	O=C(O)CS(=O)(=O)c1cc(NS(=O)(=O)c2cccs2)c2ccccc2c1O [YG1-134, 2-(1-hydroxy-4-(thiophene-2-sulfonamido)naphthalen-2-ylsulfonyl)acetic acid]	proteasome inhibitory activity, SAR statement in words: loss or reduction of the inhibitory activity
> 10 µM	O=C(O)c1cccc(NC2=C/C(=N\S(=O)(=O)c3cccs3)c3ccccc3C2=O)c1 [YG1-174, 3-(1-oxo-4-(thiophen-2-ylsulfonylimino)-1,4-dihydronaphthalen-2-ylamino)-benzoic acid]	–
> 10 µM	CC(C)(C)OC(=O)COc1ccc(NS(=O)(=O)c2cccs2)c2ccccc12 [YG2-080, tert-butyl 2-(4-(thiophene-2-sulfonamido)naphthalen-1-yloxy)acetate]	–
> 10 µM	O=C(O)COc1cc(NS(=O)(=O)c2cccs2)c2ccccc2c1O [YL2-030, 2-(1-hydroxy-4-(thiophene-2-sulfonamido)naphthalen-2-yloxy)acetic acid]	proteasome inhibitory activity, SAR statement in words: diminished the inhibitory activity
> 10 µM	CCOC(=O)CSC1=C/C(=N\S(=O)(=O)c2ccc(-c3ccccc3)cc2)c2ccccc2C1=O [YG2-011]	–
4.25 µM and 2.75 µM	O=C1C(Cl)=C/C(=N\S(=O)(=O)c2cccs2)c2ccccc21 [YG2-133-2]	–
6.9 µM and 7.6 µM and > 10 µM (4×)	CCOC(=O)CSC1=C/C(=N\S(=O)(=O)Cc2ccc(Cl)cc2)c2ccccc2C1=O [YG2-019, Ethyl 2-(4-(4-chlorobenzylsulfonylimino)-1-oxo-1,4-dihydronaphthalen-2-ylthio)-acetate]	IC50 [3]: 7.25 µM
1.1 µM and 1.79 µM	O=C1CSc2cc(NS(=O)(=O)c3cccs3)c3ccccc3c2O1 [YG2-120, N-(2-oxo-2,3-dihydronaphtho[1,2-b][1,4]oxathiin-6-yl)thiophene-2-sulfonamide]	–
> 10 µM	CC(C)(C)OC(=O)CC1C(=O)C(=O)c2ccccc2C1=O (stereo not shown) [YL2-015 4th spot]	–
2.46 µM and 7.24 µM and 7.9 µM and 9.8 µM and > 10 µM and 1.24 µM and 1.81 µM	N-(3-(1-methyl-1H-tetrazol-5-ylthio)-4-oxonaphthalen-1(4H)-ylidene)thiophene-2-sulfonamide [YG1-158-1]	IC50 [3]: 5.08 µM
> 10 µM	CC(C)(C)OC(=O)COc1cc(NS(=O)(=O)c2cccs2)c2ccccc2c1O [YL2-025, tert-Butyl-2-(1-hydroxy-4-(thiophene-2-sulfonamido)naphthalen-2-yloxy)acetate]	–
> 10 µM	CN(C)C1=C/C(=N\S(=O)(=O)c2cccs2)c2ccccc2C1=O [YG1-125, N-(3-(dimethylamino)-4-oxonaphthalen-1(4H)-ylidene)thiophene-2-sulfonamide]	–
> 10 µM	O=C(O)COc1ccc(NS(=O)(=O)c2cccs2)c2ccccc12 [YG2-083, 2-(4-(thiophene-2-sulfonamido)naphthalen-1-yloxy)acetic acid]	–
> 10 µM	Nc1ccc(SCC(=O)O)c2ccccc12 [YG3-005, 2-(4-aminonaphthalen-1-ylthio)acetic acid]	–
> 10 µM	CC(C)(C)OC(=O)COC1=C/C(=N\S(=O)(=O)c2cccs2)c2ccccc2C1=O [YL2-023, tert-Butyl-2-(1-oxo-4-(thiophen-2-ylsulfonylimino)-1,4-dihydronaphthalen-2-yloxy)acetate]	–
9.4 µM and 9.85 µM	CCSC1=C/C(=N\S(=O)(=O)c2cccs2)c2ccccc2C1=O [YG2-086-1, N-(3-(ethylthio)-4-oxonaphthalen-1(4H)-ylidene)thiophene-2-sulfonamide]	–
> 10 µM	O=C1C(N2CCN(c3ccccn3)CC2)=C/C(=N\S(=O)(=O)c2cccs2)c2ccccc21 [YG1-130]	–
4 µM and 4.7 µM and 4.2 µM and > 10 µM	CCOC(=O)CSC1=C/C(=N\S(=O)(=O)c2ccc(C)cc2)c2ccccc2C1=O [YG2-014, Ethyl 2-(1-oxo-4-(tosylimino)-1,4-dihydronaphthalen-2-ylthio)acetate]	IC50 [3]: 4.3 µM

Further lines, the compound ahead of its results:

Compound	IC50 [1]	also measured
CNC(=O)CCSc1cc(NS(=O)(=O)c2cccs2)c2ccccc2c1O [HL4-100-2, 3-(1-hydroxy-4-(thiophene-2-sulfonamido)naphthalen-2-ylthio)-N-methylpropanamide]	> 10 µM	–
CCOC(=O)CSc1cc(NS(=O)(=O)c2cccs2)c2ccccc2c1O [YG1-094-2]	2.67 µM and 9.65 µM and 9.5 µM	–
CCOC(=O)CSC1=CC(=O)c2ccccc2C1=O [YG1-059, Ethyl 2-(1,4-dioxo-1,4-dihydronaphthalen-2-ylthio)acetate]	> 100 µM	inhibition at 30 µM [2]: 49%
O=C(CCSc1cc(NS(=O)(=O)c2cccs2)c2ccccc2c1O)NC1CC1 [HL4-100-3, N-cyclopropyl-3-(1-hydroxy-4-(thiophene-2-sulfonamido)naphthalen-2-ylthio)propanamide]	8.6 µM and 6 µM and > 10 µM	IC50 [3]: 7.3 µM
CCOC1=C/C(=N\S(=O)(=O)c2cccs2)c2ccccc2C1=O [YG1-122, N-(3-ethoxy-4-oxonaphthalen-1(4H)-ylidene)thiophene-2-sulfonamide]	> 10 µM	–
CNC(=O)CCSC1=C/C(=N\S(=O)(=O)c2cccs2)c2ccccc2C1=O [HL4-078-2, N-methyl-3-(1-oxo-4-(thiophen-2-ylsulfonylimino)-1,4-dihydronaphthalen-2-ylthio)propanamide]	8.1 µM and > 10 µM (2×)	–
O=S(=O)(Nc1cc(SCCO)c(O)c2ccccc12)c1cccs1 [YG1-087-2, N-(4-hydroxy-3-(2-hydroxyethylthio)naphthalen-1-yl)thiophene-2-sulfonamide]	> 10 µM	proteasome inhibitory activity, SAR statement in words: the inhibitory activity totally lost
CCSc1cc(NS(=O)(=O)c2cccs2)c2ccccc2c1O [YG2-087-1, N-(3-(ethylthio)-4-hydroxynaphthalen-1-yl)thiophene-2-sulfonamide]	–	proteasome inhibitory activity, SAR statement in words: the inhibitory activity totally lost
CN(C)C(=O)CCSC1=C/C(=N\S(=O)(=O)c2cccs2)c2ccccc2C1=O [HL4-078-1, N,N-dimethyl-3-(1-oxo-4-(thiophen-2-ylsulfonylimino)-1,4-dihydronaphthalen-2-ylthio)propanamide]	4.7 µM and 9.65 µM and 9.56 µM and 8.5 µM and > 10 µM	IC50 [3]: 8.1 µM
CCOC(=O)CSC1=C/C(=N\S(=O)(=O)c2cccs2)c2ccccc2C1=O [YG1-094]	1.6 µM and > 10 µM and 2.8 µM and 3 µM and 1.5 µM and 2.5 µM	IC50 [3]: 2.28 µM
COC(=O)CCSc1cc(NS(=O)(=O)c2cc(Cl)c(Cl)s2)c2ccccc2c1O [HL4-098-3, Methyl-3-(4-(4,5-dichlorothiophene-2-sulfonamido)-1-hydroxynaphthalen-2-ylthio)propanoate]	0.81 µM and 1.5 µM and 1.52 µM and 0.9 µM	–
COC(=O)CCSC1=C/C(=N\S(=O)(=O)c2cccs2)c2ccccc2C1=O [YG1-112]	2.2 µM and 5.9 µM and 6.1 µM and > 10 µM (2×) and 6 µM and 3 µM	IC50 [3]: 4.64 µM
O=C(CCSC1=C/C(=N\S(=O)(=O)c2cccs2)c2ccccc2C1=O)NC1CC1 [HL4-078-3, N-cyclopropyl-3-(1-oxo-4-(thiophen-2-ylsulfonylimino)-1,4-dihydronaphthalen-2-ylthio)propanamide]	5.5 µM and 8.65 µM and > 10 µM (2×)	IC50 [3]: 8.05 µM
O=S(=O)(Nc1cc(Br)c(O)c2ccccc12)c1cccs1 [YG1-034, N-(3-bromo-4-hydroxynaphthalen-1-yl)thiophene-2-sulfonamide]	> 30 µM and > 100 µM and 28 µM	–
O=S(=O)(Nc1ccc(O)c2ccccc12)c1cccs1 [YG1-004, N-(4-hydroxynaphthalen-1-yl)thiophene-2-sulfonamide]	> 30 µM and > 100 µM and 35 µM	Chymotrypsin-like Activity Inhib at 100 μM (100 μM): 44% and 67%; proteasome inhibitory activity, SAR statement in words: loss of the inhibitory activity
O=C(O)CSc1cc(NS(=O)(=O)c2ccccc2)c2ccccc2c1O [YG1-117, 2-(1-hydroxy-4-(phenylsulfonamido)naphthalen-2-ylthio)acetic acid]	0.68 µM and 2.71 µM and 2.9 µM and 1.9 µM and 2.2 µM	IC50 (value quoted in running text / FIG. 11, read-out: IC50 against chymotrypsin-like proteasome activity): 2.08 µM
CCOC(=O)CSC1=C(SCC(=O)OCC)C(=O)c2ccccc2C1=O [YG1-017]	> 30 µM and 48 µM and > 100 µM	Chymotrypsin-like Activity Inhib at 100 μM (100 μM): 57% and 36%
O=C1C=C(O)C(=O)c2ccccc21 [S.M. of YL2-013, 2-hydroxynaphthalene-1,4-dione]	> 10 µM	–
O=S(=O)(Nc1cc(Cl)c(O)c2ccccc12)c1cccs1 [YG1-012, N-(3-chloro-4-hydroxynaphthalen-1-yl)thiophene-2-sulfonamide]	> 30 µM and 45 µM and 36 µM	Chymotrypsin-like Activity Inhibition at 30 μM [2]: 41% and 45%; inhibition at 30 µM [2]: 33%; Chymotrypsin-like Activity Inhib at 100 μM (100 μM): 97%; inhibition at 100 µM (100 μM, read-out: Chymotrypsin-like Activity Inhib at 100 μM): 82%
CN(C)C(=O)CCSc1cc(NS(=O)(=O)c2cccs2)c2ccccc2c1O [HL4-100-1, 3-(1-hydroxy-4-(thiophene-2-sulfonamido)naphthalen-2-ylthio)-N,N-dimethylpropanamide]	> 10 µM	–
COC(=O)CCSc1cc(NS(=O)(=O)c2cccs2)c2ccccc2c1O [YG1-107]	2.28 µM and 2.26 µM and 6.6 µM and 3.9 µM and 7.1 µM and 7.7 µM	–
